Patent publication US20250170155A1, “NUCLEOSIDE DERIVATIVES AND PRODRUGS THEREOF HAVING VIRAL GROWTH INHIBITORY ACTION” (Shionogi & Co., Ltd., priority 2021, published 2025)

Assays:
Assay type in all cases: cell-based
[1] = test system: influenza virus (A/WSN/33 (H1N1) strain); experiment: CPE suppression effect confirmation test (influenza virus, RPMI 2650 cells), antiviral activity; details: for EC50: read-out: Influenza EC50 (50% CPE inhibitory concentration), A/WSN/33 (H1N1), 3 to 6 days
[2] = Cytotoxic activity evaluation, RPMI 2650 cells; details: human, no virus, 3 to 6 days
Description: (§1) <Operation Procedure (Cytotoxic Activity Evaluation)>
On the day before the compound treatment, cells prepared to an appropriate number were seeded in a 96 well plate at 100 μL/well. Thereafter, the cells were cultured in a CO2 incubator at 37° C. • Preparation of 2 μg/mL trypsin/0.5% BSA/MEM
Same as those described in the section for evaluation of antiviral activity • Dilution and dispensing of test substance
A 3- to 5-fold serial dilution series of test substances was prepared in DMSO in advance, and diluted with 2 μg/mL trypsin/0.5% BSA/MEM so that the final concentration of DMSO was 0.5% (100 to 200 μL/well). The cells were washed with MEM, and then cultured in a test substance-added medium for 3 to 6 days. Double measurement was performed for each drug. • Dispensing of resazurin solution
Same as those described in the section for evaluation of antiviral activity • Measurement of fluorescence intensity
(§2) Same as those described in the section for evaluation of antiviral activity
[formula] [formula] • Calculation of Selectivity Index (SI)

[3] = test system: SARS-CoV-2 (hCoV-19/Japan/TY/WK-521/2020 strain); experiment: CPE suppression effect confirmation test (SARS-CoV-2, Vero E6/TMPRSS2 cells), antiviral activity; details: for EC50: Severe acute respiratory syndrome coronavirus 2, VeroE6/TMPRSS2, 72 h, read-out: SARS-CoV-2 EC50 (50% CPE inhibitory concentration), 3 days culture
[4] = Cytotoxic activity evaluation, Vero E6/TMPRSS2 cells; details: African green monkey, no virus
Description: as §1
A 3- to 5-fold serial dilution series of test substances was prepared in DMSO, diluted with 2% FBS/MEM so that the concentration of DMSO was 2%, and dispensed into a 96 well plate (50 μL/well, DMSO final concentration 0.5%). • Dilution and dispensing of cells
The cells prepared to an appropriate number were seeded at 100 μL/well to the plate into which the test substance was dispensed. Thereafter, the cells were cultured in a CO2 incubator at 37° C. for 3 days. • Dispensing of CellTiter-Glo (registered trademark) 2.0 Reagent
Same as those described in the section for evaluation of antiviral activity • Measurement of luminescence intensity
as §2
Excel, TIBCO Spotfire, or a program having equivalent calculation processing capability based on the following calculation formula.

[5] = test system: SARS-CoV-2 (hCoV-19/Japan/TY/WK 521/2020 strain); experiment: microbe, parasite or virus in culture; details: HEK293T/ACE2-TMPRSS2 cells; for EC50: Severe acute respiratory syndrome coronavirus 2, HEK-293T, 72 h, read-out: SARS-CoV-2 EC50 (50% CPE inhibitory concentration), 293T-AT, 3 days culture

SMILES | Influenza SI (Selectivity Index) [1] | EC50 [1] | CC50 [2] | SARS-CoV-2 SI (Selectivity Index) [3] | EC50 [3] | CC50 at 3 days [4] | SARS-CoV-2 SI (Selectivity Index), 293T-AT [5] | EC50 [5]
Nc1ncnc2c([C@@H]3O[C@H](CO)[C@@H](O)[C@H]3F)c[nH]c12 [Compound I-002] | >105 | 4.77 µM | > 500 µM |  |  |  |  | 
Nc1ncnn2c([C@@H]3N[C@H](CO)[C@@H](O)C3(F)F)ccc12 [Compound I-003] | >22.1 | 22.6 µM | > 500 µM |  |  |  |  | 
Nc1nc(F)nn2c([C@@H]3N[C@H](CO)[C@@H](O)[C@H]3O)ccc12 [Compound I-004] | >2.06 | 243 µM | > 500 µM |  |  |  |  | 
Cc1nc(N)c2ccc([C@@H]3N[C@H](CO)[C@@H](O)[C@H]3O)n2n1.Cl.Cl [Compound I-005] | >2.13 | 235 µM | > 500 µM |  |  |  |  | 
Nc1ncnn2c([C@@H]3N[C@H](CO)[C@@H](O)[C@H]3O)cc(F)c12 [Compound I-006] | 17 | 0.316 µM | 5.38 µM |  |  |  |  | 
CCC1[C@@H](c2ccc3c(N)ncnn23)[C@H](O)[C@H](O)[C@H]1CO (stereo partly drawn) [Compound I-007] | 1.06 | 473 µM | > 500 µM |  |  |  |  | 
Nc1ncnn2c([C@@H]3N[C@@H](CO)[C@@H](O)[C@H]3F)ccc12 [Compound I-009] | 1.23 | 406 µM | > 500 µM |  |  |  |  | 
Cl.Nc1ncnn2c([C@@H]3N[C@H](CO)[C@@H](O)[C@H]3O)cc(B(O)O)c12 [Compound I-011] | 11.2 | 6.7 µM | 75.1 µM |  |  |  |  | 
Nc1ncnc2c([C@@H]3N[C@H](CO)[C@@H](O)[C@H]3O)ccn12 [Compound I-012] | >281 | 1.78 µM | > 500 µM |  |  |  |  | 
Nc1ncnn2c([C@@H]3N[C@H](CO)[C@@H](O)[C@H]3F)ccc12 [Compound I-013] | >1.99 | 251 µM | > 500 µM |  |  |  |  | 
Nc1ncnc2c([C@@H]3O[C@H](CO)[C@@H](O)[C@H]3O)ccn12 [Compound I-014] | 69.7 | 0.188 µM | 13.1 µM |  |  |  |  | 
N=C(N)c1cc([C@@H]2N[C@H](CO)[C@@H](O)[C@H]2O)n2ncnc(N)c12 [Compound I-017] |  |  |  | >11.1 | 44.9 µM | > 500 µM |  | 
O=c1[nH]cnn2c([C@@H]3N[C@H](CO)[C@@H](O)[C@H]3O)ccc12 [Compound I-019] | >7.62 | 65.6 µM | > 500 µM |  |  |  |  | 
Cl.Nc1ncnn2c([C@@H]3N[C@H](CO)[C@@H](O)[C@H]3O)cc(-c3nccs3)c12 [Compound I-021] | >20.9 | 23.9 µM | > 500 µM |  |  |  |  | 
Nc1ncnn2c([C@@H]3N[C@H](CO)[C@@H](O)[C@H]3O)cc(/C=N\O)c12 [Compound I-026] | >518 | 0.965 µM | > 500 µM |  |  |  |  | 
Nc1ncnn2c([C@@H]3N[C@H](CO)[C@@H](O)[C@H]3O)cc(-c3cncs3)c12 [Compound I-027] | >48.5 | 10.3 µM | > 500 µM |  |  |  |  | 
N#CCc1cc([C@@H]2N[C@H](CO)[C@@H](O)[C@H]2O)n2ncnc(N)c12 [Compound I-028] | 20.6 | 4.95 µM | 102 µM |  |  |  |  | 
Cl.Nc1ncnn2c([C@@H]3N[C@H](CO)[C@@H](O)[C@H]3O)cc(-c3ccn[nH]3)c12 [Compound I-029] |  |  |  | 9.01 | 34.7 µM | 316 µM |  | 

SMILES | Influenza SI (Selectivity Index) [1] | EC50 [1] | CC50 [2] | SARS-CoV-2 SI (Selectivity Index) [3] | EC50 [3] | CC50 at 3 days [4] | SARS-CoV-2 SI (Selectivity Index), 293T-AT [5] | EC50 [5]
Nc1ncnc2c([C@@H]3N[C@H](CO)[C@@H](O)[C@H]3O)cc(/C=N/O)n12 [Compound I-031] | >1.46 | 343 µM | > 500 µM |  |  |  |  | 
Cl.Nc1ncnn2c([C@H]3N[C@@H](CO)[C@H](O)[C@@H]3O)cc(B(O)O)c12 [Compound I-032] | >1.38 | 361 µM | > 500 µM |  |  |  |  | 
Nc1ncnn2c([C@@H]3N[C@H](CO)[C@@H](O)[C@H]3O)cc(-c3ncc[nH]3)c12 [Compound I-033] |  |  |  | >134 | 3.74 µM | > 500 µM |  | 
OC[C@H]1N[C@@H](c2ccn3c(NO)ncnc23)[C@H](O)[C@@H]1O [Compound I-035] | >1.33 | 375 µM | > 500 µM |  |  |  |  | 
Cn1cnc(-c2cc([C@@H]3N[C@H](CO)[C@@H](O)[C@H]3O)n3ncnc(N)c23)c1 [Compound I-039] |  |  |  | >6.02 | 83.1 µM | > 500 µM |  | 
Cl.Cn1cc(-c2cc([C@@H]3N[C@H](CO)[C@@H](O)[C@H]3O)n3ncnc(N)c23)nn1 [Compound I-040] |  |  |  | >5.93 | 84.3 µM | > 500 µM |  | 
Nc1ncnn2c([C@@H]3N[C@H](CO)[C@@H](O)[C@H]3O)cc(-c3cccnc3)c12 [Compound I-041] | >76.2 | 5.56 µM | > 500 µM |  |  |  |  | 
N#C[C@@]1(c2cnc3c(N)ncnn23)O[C@H](CO)[C@@H](O)C1O (stereo partly drawn) [Compound I-042] |  |  |  | >6.66 | 75.1 µM | > 500 µM |  | 
Cc1cnc(-c2cc([C@@H]3N[C@H](CO)[C@@H](O)[C@H]3O)n3ncnc(N)c23)s1 [Compound I-043] | >2.46 | 203 µM | > 500 µM |  |  |  |  | 
CCn1cc(-c2cc([C@@H]3N[C@H](CO)[C@@H](O)[C@H]3O)n3ncnc(N)c23)cn1.Cl [Compound I-044] |  |  |  | 16.6 | 22.6 µM | 444 µM |  | 
Cl.Nc1ncnn2c([C@@H]3N[C@H](CO)[C@@H](O)[C@H]3O)cc(-c3nc4ccccc4s3)c12 [Compound I-045] |  |  |  | 25.4 | 3.78 µM | 96 µM |  | 
N#C[C@@]1(c2ccn3c(N)ncnc23)O[C@H](CO)[C@@H](O)[C@H]1O [Compound I-046] |  |  |  | 15.6 | 31.1 µM | 485 µM |  | 
Cc1nc(-c2cc([C@@H]3N[C@H](CO)[C@@H](O)[C@H]3O)n3ncnc(N)c23)c[nH]1.Cl [Compound I-047] |  |  |  | >10.4 | 48.2 µM | > 500 µM |  | 
Cl.Nc1ncnn2c([C@@H]3N[C@H](CO)[C@@H](O)[C@H]3O)cc(-c3n[nH]c4ccccc34)c12 [Compound I-049] |  |  |  | 5.7 | 69.6 µM | 397 µM |  | 
N#C[C@@]1(c2ccc3c(N)ncnn23)O[C@H](CO)[C@@H](O)[C@H]1O [GS-441524, reference compound] |  | > 500 µM |  |  |  |  |  | 
Nc1ncnc2c([C@@H]3N[C@H](CO)[C@@H](O)[C@H]3O)c[nH]c12 [Galidesivir, reference compound] |  |  |  |  | > 100 µM |  | <5.3 | > 20 µM
Nc1ncnc2c([C@@H]3N[C@H](CO)[C@@H](O)[C@H]3O)cnn12 [WO2006002231 Example 13_9-4, reference compound] | 4.69 | 87.8 µM |  |  |  |  |  | 
Nc1ncnn2c([C@@H]3N[C@H](CO)[C@@H](O)[C@H]3O)ccc12 [WO2014078778 Example5_30 g, reference compound] | 73.7 | 0.471 µM |  | <0.41 | > 4 µM |  | <1.34 | > 4 µM
